We go through 16 molecules from US8450332B2, “LIMK2 inhibitors, compositions comprising them, and methods of their use” (Lexicon Pharmaceuticals, Inc., priority 2008, dated 2013).

T1 sequence (P53671 whole entry): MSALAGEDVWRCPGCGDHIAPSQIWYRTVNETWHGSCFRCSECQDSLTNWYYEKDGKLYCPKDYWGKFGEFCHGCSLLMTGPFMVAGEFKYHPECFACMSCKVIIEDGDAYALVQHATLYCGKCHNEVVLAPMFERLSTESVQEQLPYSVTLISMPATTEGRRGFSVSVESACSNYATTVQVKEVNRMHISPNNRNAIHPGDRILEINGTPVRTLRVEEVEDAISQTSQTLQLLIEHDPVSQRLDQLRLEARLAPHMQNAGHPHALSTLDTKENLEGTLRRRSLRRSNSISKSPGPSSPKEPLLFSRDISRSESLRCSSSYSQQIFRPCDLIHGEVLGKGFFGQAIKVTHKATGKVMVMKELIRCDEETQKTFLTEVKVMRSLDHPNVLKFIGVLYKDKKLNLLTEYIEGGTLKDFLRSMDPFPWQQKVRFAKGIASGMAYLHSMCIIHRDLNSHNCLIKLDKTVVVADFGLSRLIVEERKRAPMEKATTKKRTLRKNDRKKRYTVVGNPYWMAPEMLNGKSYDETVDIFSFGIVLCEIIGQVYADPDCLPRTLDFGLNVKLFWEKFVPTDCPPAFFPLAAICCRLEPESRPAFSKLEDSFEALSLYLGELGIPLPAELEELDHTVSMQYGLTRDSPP

This assay concerns the target T1, LIMK2 (Homo sapiens, UniProt P53671).
T1 construct: His tag (histidine-tagged; pFastBacHT vector); made in house; host or cells: Sf9 insect cells (BAC-to-BAC baculovirus system)
The experiment in a line: In vitro LIMK2 inhibition assay (33P incorporation into myelin basic protein flash plates). The class given is biochemical. As for the experimental part:
Using the procedures described herein and methods known in the art, the additional compounds listed below in Table 1 were prepared. The LIMK2 IC50 data that is provided below for some of the compounds was determined using the assay described in Example 32.
An in vitro assay used to identify LIMK2 inhibitors was developed. The analytical readout was the incorporation of ^33P from ATP substrate into immobilized myelin basic protein coated flash plates (Perkin Elmer Biosciences), which were counted on a scintillation counter equipped with a plate reader (TopCount, Packard Bioscience, Meriden, Conn.). Using 384 well flat MBP flashplates, total assay volume was 50 μl. The HTS program utilized a Biomek FX for dilution.
For each assay, the ingredients and conditions were as follows: 200 ng of enzyme was incubated in assay buffer (1× assay buffer contains 30 mM HEPES (pH 8.0), 5 mM DTT, and 10 mM MgCl2), 10 μM ATP, 0.2 μCi [gamma-^33P]-ATP and 10 μM of potential inhibitory compound. The reaction was incubated at room temperature for 60 minutes, washed 3 times with 75 μl of stop/wash buffer (1× stop/was buffer contains 50 mM EDTA and 20 mM Tris (pH 7.4)), and then the plates were read on the scintillation counter. Different concentrations of staurosporine (400 nM, 200 nM, 100 nM and 50 nM; purchased from BIOMOL (Plymouth Meeting, Pa.)) were used as controls on each plate.
The molecule `Cc1c[nH]c2ncnc(N3CCC(C)(C(=O)Nc4cccc(C(F)(F)F)c4)CC3)c12` [4-methyl-1-(5-methyl-7H-pyrrolo[2,3-d]pyrimidin-4-yl) N-(3-(trifluoromethyl)phenyl)piperidine-4-carboxamide] registered an IC50 of less than 250 nM.
The same measure for `Cc1c[nH]c2ncnc(N3CCC(C)(C(=O)Nc4cccc(S(=O)(=O)N5CCOCC5)c4)CC3)c12` [4-methyl-1-(5-methyl-7H-pyrrolo[2,3-d]pyrimidin-4-yl)-N-(3-(morpholinosulfonyl)phenyl)piperidine-4-carboxamide]: less than 250 nM; for `Cc1cccc(NC(=O)C2(C)CCN(c3ncnc4[nH]cc(C)c34)CC2)c1` [4-methyl-1-(5-methyl-7H-pyrrolo[2,3-d]pyrimidin-4-yl)-N-m-tolylpiperidine-4-carboxamide]: less than 250 nM; for `Cc1c[nH]c2ncnc(N3CCC(C)(C(=O)Nc4ccccc4)CC3)c12` [4-methyl-1-(5-methyl-7H-pyrrolo[2,3-d]pyrimidin-4-yl)-N-phenylpiperidine-4-carboxamide]: less than 250 nM.
Regarding `Cc1c[nH]c2ncnc(N3CCC(CNC(=O)[C@@H](N)CCCN)(C(=O)Nc4cccc(OC(=O)N(C)C)c4)CC3)c12` [(S)-3-(4-((2,5-diaminopentanamido)methyl)-1-(5-methyl-7H-pyrrolo[2,3-d]pyrimidin-4-yl)piperidine-4-carboxamido)phenyl dimethylcarbamate], the IC50 was less than 250 nM.
Under `Cc1c[nH]c2ncnc(N3CCC(CNC(=O)[C@@H](N)Cc4c[nH]cn4)(C(=O)Nc4cccc(OC(=O)N(C)C)c4)CC3)c12` [(S)-3-(4-((2-amino-3-(1H-imidazol-4-yl)propanamido)methyl)-1-(5-methyl-7H-pyrrolo[2,3-d]pyrimidin-4-yl)piperidine-4-carboxamido)phenyl dimethylcarbamate] stands less than 250 nM; under `Cc1c[nH]c2ncnc(N3CCC(CNC(=O)[C@@H](N)CO)(C(=O)Nc4cccc(OC(=O)N(C)C)c4)CC3)c12` [(S)-3-(4-((2-amino-3-hydroxypropanamido)methyl)-1-(5-methyl-7H-pyrrolo[2,3-d]pyrimidin-4-yl)piperidine-4-carboxamido)phenyl dimethylcarbamate], less than 250 nM.
Under `Cc1c[nH]c2ncnc(N3CCC(C)(C(=O)Nc4cccc(CC(=O)N(C)C)c4)CC3)c12` [N-(3-(2-(dimethylamino)-2-oxoethyl)phenyl)-4-methyl-1-(5-methyl-7H-pyrrolo[2,3-d]pyrimidin-4-yl)piperidine-4-carboxamide] stands less than 250 nM.
The same measure for `Cc1c[nH]c2ncnc(N3CCC(C)(C(=O)Nc4cccc(Oc5ccc(F)cc5)c4)CC3)c12` [N-(3-(4-fluorophenoxy)phenyl)-4-methyl-1-(5-methyl-7H-pyrrolo[2,3-d]pyrimidin-4-yl)piperidine-4-carboxamide]: less than 250 nM.
On to `Cc1c[nH]c2ncnc(N3CCC(C)(C(=O)Nc4cccc(S(=O)(=O)NC(C)C)c4)CC3)c12` [N-(3-(N-isopropylsulfamoyl)phenyl)-4-methyl-1-(5-methyl-7H-pyrrolo[2,3-d]pyrimidin-4-yl)piperidine-4-carboxamide], for which the IC50 was less than 250 nM.
Molecule `Cc1c[nH]c2ncnc(N3CCC(C)(C(=O)Nc4ccc(F)c(Br)c4)CC3)c12` [N-(3-bromo-4-fluorophenyl)-4-methyl-1-(5-methyl-7H-pyrrolo[2,3-d]pyrimidin-4-yl)piperidine-4-carboxamide] had an IC50 of less than 250 nM.
In turn, `CC1(C(=O)Nc2cccc(Br)c2)CCN(c2ncnc3[nH]cc(Cl)c23)CC1` [N-(3-bromophenyl)-1-(5-chloro-7H-pyrrolo[2,3-d]pyrimidin-4-yl)-4-methylpiperidine-4-carboxamide] yielded an IC50 of less than 250 nM.
Molecule `Cc1c[nH]c2ncnc(N3CCC(C)(C(=O)Nc4cccc(Br)c4)CC3)c12` [N-(3-bromophenyl)-4-methyl-1-(5-methyl-7H-pyrrolo[2,3-d]pyrimidin-4-yl)piperidine-4-carboxamide] came in with an IC50 of less than 250 nM.
Under `Cc1c[nH]c2ncnc(N3CCC(C)(C(=O)Nc4cccc(NC(=O)C(C)C)c4)CC3)c12` [N-(3-isobutyramidophenyl)-4-methyl-1-(5-methyl-7H-pyrrolo[2,3-d]pyrimidin-4-yl)piperidine-4-carboxamide] stands less than 250 nM; under `COc1ccc(NC(=O)C2(C)CCN(c3ncnc4[nH]cc(C)c34)CC2)cc1` [N-(4-methoxyphenyl)-4-methyl-1-(5-methyl-7H-pyrrolo[2,3-d]pyrimidin-4-yl)piperidine-4-carboxamide], less than 250 nM; under `COC(=O)c1nnn(CC2(C(=O)Nc3cccc(OC(=O)N(C)C)c3)CCN(c3ncnc4[nH]cc(C)c34)CC2)c1C(=O)OC` [dimethyl 1-((4-(3-(dimethylcarbamoyloxy)phenylcarbamoyl)-1-(5-methyl-7H-pyrrolo[2,3-d]pyrimidin-4-yl)piperidin-4-yl)methyl)-1H-1,2,3-triazole-4,5-dicarboxylate], less than 250 nM.
